Earlier results, collected in patent US20210338635A1, “Dosage Regimen for the Treatment of Multiple Sclerosis with a S1P Receptor Modulator” (Argentum Pharmaceuticals LLC, priority 2020, published 2021).

Assays:
[1] = administration of 1.25 mg; healthy patients; treatment initiation
[2] = humans; relapsing multiple sclerosis, oral

| SMILES | decrease in heart rate [1] | efficacy in the treatment of multiple sclerosis [2] |
| --- | --- | --- |
| CCc1cc(/C(C)=N/OCc2ccc(C3CCCCC3)c(C(F)(F)F)c2)ccc1CN1CC(C(=O)O)C1 [BAF-312, 1-({4-[(1E)-1-({[4-Cyclohexyl-3(trifluoromethyl)phenyl]methoxy}imino)ethyl]-2-ethylphenyl}methyl)azetidine-3-carboxylic acid] | approximately 8 beets/min | – |
| CCCCCCCCc1ccc(CCC(N)(CO)CO)cc1 [FTY720] | – | efficacy in the treatment of multiple sclerosis has been shown in humans |
